{
  "source": "patent US20030216471A1",
  "about": "“Retinoid formulations for aerosolization and inhalation” (priority 2003, published 2003)",
  "key": {"[1]": {"biological_target": "albumin (Homo sapiens, UniProt P02768)", "sequence (P02768 25-609, species assumed)": "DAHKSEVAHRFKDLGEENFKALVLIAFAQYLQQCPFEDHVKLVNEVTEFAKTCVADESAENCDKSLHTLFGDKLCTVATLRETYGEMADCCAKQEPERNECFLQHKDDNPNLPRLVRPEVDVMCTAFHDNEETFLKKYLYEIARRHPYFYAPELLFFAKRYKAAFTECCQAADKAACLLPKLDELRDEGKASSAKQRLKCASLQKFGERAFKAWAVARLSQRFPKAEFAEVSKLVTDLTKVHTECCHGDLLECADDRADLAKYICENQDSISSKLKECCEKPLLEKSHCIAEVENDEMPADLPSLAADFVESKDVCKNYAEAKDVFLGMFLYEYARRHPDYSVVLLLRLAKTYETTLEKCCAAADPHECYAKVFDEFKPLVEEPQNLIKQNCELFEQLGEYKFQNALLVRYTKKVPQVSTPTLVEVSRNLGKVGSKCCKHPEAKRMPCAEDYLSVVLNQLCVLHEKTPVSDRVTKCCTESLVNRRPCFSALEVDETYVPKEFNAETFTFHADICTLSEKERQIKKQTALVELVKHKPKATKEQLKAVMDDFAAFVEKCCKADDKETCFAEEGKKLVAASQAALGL", "conditions": "systemic administration, reported; cited from earlier work"}, "[2]": {"test_system": "RAR β", "assay": "RAR induction in lungs of A/J mice exposed to isotretinoin aerosol, RAR β", "format": "in vivo, mouse", "conditions": "inhaled mid dose, urethane-treated A/J mice", "protocol": "(§2) Antibodies: Polyclonal antibodies to RARα, β and γ (Santa Cruz Biotechnology Inc., San Francisco, Calif.) were used with a BM Chemiluminescence Western Blotting Kit (Mouse/Rabbit) (Boehringer Mannheim Corporation, Indianapolis).\n(§3) Experimental Design: Five lungs each from the urethane-treated vehicle, low dose, and mid dose animals were snap frozen in liquid nitrogen and stored at −70° C. for determination of RARs α, β and γ by Western Blot Analysis. […] The lungs were homogenized and the RARs were determined by standard Western Blotting (21, 22).\n(§4) Samples: Lung tissue was collected, frozen on dry ice and kept at −70° C. until used. A 500 mg portion was diced in small pieces and homogenized in 300 μl of cold PBS using a hand held homogenizer for 2-3 min. Samples were centrifuged at 500 rpm for 5 min or until the supernatant was clear. The pellet was suspended in 400 μl of cold Buffer A [2 μl 0.5 M EDTA, 10 μl mM EGTA, 50 μl 100 mM PMSF, 10 μl 1M DTT, 10 ml (10 mM HEPES pH 7.9+10 mM KCl)], and left at ice temperature for 15 min. A 25 μl volume of 10% solution of NP−40 was added and the samples were mixed in a vortex vigorously for 10 sec. Samples were centrifuged at 14,000 rpm for 1 min at 4° C. and the pellet was treated once more in this fashion. […]"}, "[3]": {"conditions": "doses used in the MD Anderson study, based on pharmacokinetic data; cited from earlier work"}, "[4]": {"test_system": "RAR α", "assay": "RAR induction in lungs of A/J mice exposed to isotretinoin aerosol, RAR α", "format": "in vivo, mouse", "conditions": "inhaled mid dose, urethane-treated A/J mice", "protocol": "as §2, §3, §4"}, "[5]": {"test_system": "liver RARs", "assay": "Western blot of rat liver RARs after inhaled 13-cis RA", "format": "in vivo", "conditions": "not shown", "description": "(§1) The experimental groups were as follows (Table 4):1. Vehicle (10/9 mix of PEG 300 and Ethanol with 0.5% of ascorbic acid and 0.5% phosphatidyl choline) control, day 1: rats (19) inhaled vehicle for 2 hr for one day; 2. […] Vehicle control, day 28: rats (16) inhaled vehicle as for group 1 for a period of 28 days; 5.\nThe experimental groups were as follows (Table 1): 1. Vehicle control: rats (3) inhaled vehicle for 240 minutes; 2.\nTissues were collected, frozen in dry ice and kept at −70° C. until used. 500 mg aliquots were diced in small pieces and homogenized in 300 μl of cold PBS, using the hand held homogenizer for 2˜3 minutes. Sample and washes were centrifuged at 5000×g for 20 minutes. The pellet was suspended in 400 μl of ice-cold Buffer A [2 μl 0.5M EDTA, 10 μl 100 mM EGTA, 50 μl 100MM PMSF, 10 μl 1M DTT, 10 ml (10 mM HEPES pH 7.9+10 mM KCl)], and left at ice temperature for 15 minutes. 25 μl of 10% solution of NP-40 was added and samples were mixed in a vortex vigorously for 10 seconds. Samples were centrifuged at 14,000×g for 1 minute at 4° C. and the pellet treated once more in this fashion (resuspended etc.). The supernatant was removed and 100 μl of ice-cold Buffer C [4 μl 0.5M EDTA, 20 μl 100 mM EGTA, 20 μl 100 mM PMSF, 2 μl 1M DTT, 2 ml (20 mM HEPES pH 7.9+0.4M NaCl)] was added. Pellets were resuspended by tapping gently on the bottom of the Eppendorf tubes. […]"}, "[6]": {"test_system": "TGase II", "assay": "TGase II activity in cultured human breast cancer MCF-7 cells", "format": "cell-based", "conditions": "MCF-7 cells, 10^−6 M, 72 hours, over DMSO", "description": "Cells were harvested and Transglutaminase II activity was measured as described below. Nebulizer solution, inhalation procedures, details of animal housing are described below.\nCultured cells were placed in 100 μl scraping buffer [A: 2800 μl (400 μl 0.5M Na-Phosphate, 500 μl 0.01M EDTA, 100 μl 1M DTT, 9 ml PBS total 10 ml)+B:700 μl (10 μl 20 mg/ml PMSF 790 μl PBS total 800 μl)] for each dish. Cells were broken by a sonicator and kept in ice until used. TGase II assay was conducted as described below and previously {8217}.\nEnzyme assay mixtures were prepared by adding 80 μl of SUBSTRATE mixture (322.8 μl H2O, 120 μl 0.5M NaBorate, 60 μl 0.01M EDTA, 60 μl 0.1M CaCl2, 6 μl 1M DTT, 240 μl dimethyl casein, 30 μl Triton X-100, 1.21 μl [^3H]-Putrescine, 120 μl Putrescine) to 20 μl sample, 20 μl scraping buffer for blank control, 20 μl (18 μl scraping buffer+2 μl TGase II) for positive control. Samples were mixed in 15 ml tubes, the tubes were shaken before putting them into a 28° C. water bath for 30 minutes. Reactions were slowed down in an ice bath. 80 μl of the incubation mixture was adsorbed onto paper disks. These were immediately dropped into cold 10% TCA (0.1% Putrescine) and washed with agitation for 7 minutes, followed by 2 additional washes with 5% TCA (0.05% putrescine) for 5-7 minutes, and once more with cold (−20° C.) 95% ethanol for 5 minutes. Paper disks were dried and placed into 5 ml Aquasol, and counted in a Liquid Scintillation Counter. Protein concentration determination was conducted by the Bradford method."}, "[7]": {"test_system": "RAR β", "assay": "Western blot of rat lung, inhaled 13-cis RA (experiment A), RAR β", "format": "in vivo", "conditions": "for upregulation of lung tissue RAR (second named, β): daily deposited dose 6.4 mg/kg/day", "description": "as §1\nTissues were collected, frozen in dry ice and kept at −70° C. until used. 500 mg aliquots were diced in small pieces and homogenized in 300 μl of cold PBS, using the hand held homogenizer for 2˜3 minutes. Sample and washes were centrifuged at 5000×g for 20 minutes. The pellet was suspended in 400 μl of ice-cold Buffer A [2 μl 0.5M EDTA, 10 μl 100 mM EGTA, 50 μl 100MM PMSF, 10 μl 1M DTT, 10 ml (10 mM HEPES pH 7.9+10 mM KCl)], and left at ice temperature for 15 minutes. 25 μl of 10% solution of NP-40 was added and samples were mixed in a vortex vigorously for 10 seconds. Samples were centrifuged at 14,000×g for 1 minute at 4° C. and the pellet treated once more in this fashion (resuspended etc.). The supernatant was removed and 100 μl of ice-cold Buffer C [4 μl 0.5M EDTA, 20 μl 100 mM EGTA, 20 μl 100 mM PMSF, 2 μl 1M DTT, 2 ml (20 mM HEPES pH 7.9+0.4M NaCl)] was added. Pellets were resuspended by tapping gently on the bottom of the Eppendorf tubes. Samples were rocked vigorously in a bucket of ice on an orbital shaker for 30 minutes. Samples were centrifuged at 14,000×g for 5 minutes at 4° C.\nSamples were prepared by adding one part of the Sample Buffer to one part of the sample and mixing well. Samples were heated at 95° C. for 5 minutes to induce denaturation. 5 μl of Rainbow Standard and 5 μl of Biotinylated Molecular Marker were added to parallel wells. 20 μg protein per sample was loaded in each lane. Electrophoresis was performed with voltage set at 125V for about 1˜1.5 hours. Gel transfer was executed at 25V for 2 hours. The membrane was stained in Ponceau S. for 5 minutes and destained with one wash of 5% acetic acid. The membrane was then washed in TBS solution until the staining disappeared. […]"}, "[8]": {"test_system": "RAR γ", "assay": "RAR induction in lungs of A/J mice exposed to isotretinoin aerosol, RAR γ", "format": "in vivo, mouse", "conditions": "inhaled mid dose, urethane-treated A/J mice", "protocol": "as §2, §3, §4"}},
  "data": [
    {"smiles": "CC1=C(/C=C/C(C)=C/C=C/C(C)=C\\C(=O)O)C(C)(C)CCC1", "note": "[13-cis RA, 13-cis-Retinoic Acid]", "values": [
      {"measurement": "present as albumin bound", "setting": "[1]", "value": 99, "unit": "%"},
      {"measurement": "upregulation of lung tissue RAR β over solvent (vehicle)", "setting": "[2]", "value": 3.3, "unit": "fold"},
      {"measurement": "steady-state blood levels", "setting": "[3]", "value": "100 to 200", "unit": "ng/mL"},
      {"measurement": "upregulation of lung tissue RAR α over solvent (vehicle)", "setting": "[4]", "value": 3.9, "unit": "fold"},
      {"measurement": "effect of inhaled 13-cis RA on liver RARs", "setting": "[5]; 5 to 240 minutes daily for 14 days", "value": "not responsive"},
      {"measurement": "effect of inhaled 13-cis RA on liver RARs", "setting": "[5]; same rats as FIG. 2A (experiment A)", "value": "failed to show any increase"},
      {"measurement": "stimulating TGase II activity", "setting": "[6]", "value": 6.1, "unit": "Fold"},
      {"measurement": "induction of lung RAR (second named, β)", "setting": "[7]; daily deposited dose 1.9 mg/kg/day, day 28", "value": 8.0, "unit": "fold"},
      {"measurement": "upregulation of lung tissue RAR (second named, β)", "setting": "[7]; day 1", "value": 7.2, "unit": "fold"},
      {"measurement": "upregulation of lung tissue RAR (second named, β)", "setting": "[7]; day 17", "value": 10.0, "unit": "fold"},
      {"measurement": "upregulation of lung tissue RAR γ over solvent (vehicle)", "setting": "[8]", "value": 3.7, "unit": "fold"}
    ]}
  ]
}
